According to patent publication US20250204528A1, “USE OF 2-AMINO-3-INDOLYL BUTYRIC ACID OR 3-METHYLPYRROLIDINE-2-CARBOXYLIC ACID AS PLANT IMMUNITY ELICITOR” (NANJING TIANNONG BIOTECHNOLOGY CO., LTD, priority 2021, published 2025):

Experiments:
ryegrass = assay: Ryegrass under high temperature stress; assay type: in vivo; parameters: Heat damage index: scale not given here; settings: for Heat damage index: 45° C. 12 h, recovery 7 d; for Heat damage index of the ryegrass decreased: vs control group
Method: 2-amino-3-indolyl butyric acid was dissolved in distilled water and gradiently diluted with distilled water to obtain solutions of 1 nm, 10 nm, 100 nm and 1,000 nm. A blank control was additionally set. Meanwhile, 0.02% Tween 20 was added as a surfactant. Each concentration was set to 4 replicates while a room temperature blank control was set. Ryegrass seeds were weighed at 0.8 g per pot, sown in a pot with the diameter of 8.5 cm and planted in a greenhouse at 25° C. with the humidity of 60%-70% and the light intensity of 200 μmolm^−2s^−1 (12 h light/12 h dark). After 7 d of growth, the ryegrass was treated by spraying the 2-amino-3-indolyl butyric acid solution on the leaf surfaces twice for 24 h. 24 h after the second spraying, the ryegrass was transferred to an illumination incubator at 45° C. for a high temperature stress treatment for 12 h. The plants were taken out and transferred to the greenhouse at 25° C. for recovery for 7 d. The damage conditions of the plants were observed and counted, and the heat damage grades were calculated. The heat damage grading standard was shown in table 8 and a calculation formula of the heat damage index was as follows.

[1] = test system: tomato spotted wilt viruses; assay: Induction of tobacco against infection by tomato spotted wilt viruses; assay type: in vivo, Nicotiana benthamiana; settings: for Disease index / Relative immune effect (%): tobacco; for Disease indexes of the tobacco / Relative immune effects: each treatment in concentration range 0.1-10 nm; for Content of virus proteins: relative protein content in leaves after 3 d, Western blot/Image J
Method: Tomato spotted wilt viruses were taken from Yunnan province of China. An initial virus source was placed in a refrigerator at −80° C. for storage and activated by inoculation on Nicotiana benthamiana leaves by using a friction inoculation. Virus plasmids were extracted for transformation of Escherichia coli competent cells. The bacteria were coated on a resistant plate for culture, single colonies were selected for PCR screening, and positive colonies were selected for sequencing and subsequent plasmid extraction. The plasmids with normal sequencing were added into Agrobacterium competent cells and subjected to the Agrobacterium transformation by using an electric shock method. The transformed Agrobacterium liquid was coated on a screening plate with corresponding resistance and cultured at 28±1° C. for 48 h. Single colonies of the Agrobacterium on the transformation plate were selected, placed in a 5-mL LB medium containing the corresponding resistance and cultured overnight at 28° C. and 180 rpm. The bacteria were collected by centrifugation at 6,000 rpm for 2 min, suspended in an Agrobacterium treatment buffer (10 mM MgCl2, 10 mM MES and 10 μM acetosyringone) to enable the OD600 value of the suspension to be 0.5, and treated in a dark place at 28° C. for 3 h for later use.
2-amino-3-indolyl butyric acid was dissolved in distilled water and gradiently diluted with distilled water to obtain solutions of 0 nM, 0.1 nM, 1 nM and 10 nM. Nicotiana benthamiana seeds were sown in a small pot, illuminated at 22±1° C. for 12 h/12 h, and cultured for 5 weeks. Healthy tobacco plants (preferably 8-10 leaves) were selected and sprayed with the 2-amino-3-indolyl butyric acid solutions at the above concentrations on stems and leaves. The treatment was repeated once every 24 h and a total of two treatments was performed. After 24 h, the Agrobacterium liquid with the uniform concentration was extracted by using a 1 mL injector, an injection port of the injector was directly pressed on a small hole on the back of the tobacco leaves, and the bacterium liquid was slowly injected to infiltrate the whole leaves. The infiltrated tobacco was transferred to the environment at 22±1° C. and with 12 h/12 h illumination for culturing. The tobacco was observed and recorded by a microscope after 3 d. Meanwhile, the sample was taken, the gray levels of protein bands were analyzed by using Western blot combined with an Image J software, and the relative protein content of the viruses in the leaves was determined. The disease condition of the tobacco leaves was observed after 15 d and the disease index was recorded according to GB/T23222-2008 Grade and investigation method of tobacco diseases and insect pests. The formula was as follows: […]
Grading standard of diseases caused by tomato spotted wilt viruses (grading and investigation by taking plants as units): • grade 0: the whole plants were disease-free; • grade 1: the veins of interior leaves were obvious or leaves were slightly spotted, and the diseased plants were not obviously dwarfed; • grade 3: one third leaves were spotted but not deformed, or the plants were dwarfed to the heights of more than three fourths of those of normal plants; • grade 5: one third to one half leaves were spotted, or a few leaves were deformed, or main veins were blackened, or the plants were dwarfed to the heights of two thirds to three fourths of those of the normal plants; • grade 7: one half to two thirds leaves were spotted or deformed, or a few main lateral veins were necrotic, or the plants were dwarfed to the heights of one half to two thirds of those of the normal plants; and • grade 9: the leaves of the whole plates were spotted, severely deformed or necrotic, or the diseased plants were dwarfed to the heights of […] of those of the normal plants.

hydroponic wheat = assay: Wheat under drought stress (25% PEG-6000); assay type: in vivo; settings: for Drought damage index (%) / Dry weight(g) Overground part / Dry weight(g) Underground part / Fresh weight (g) Overground part / Fresh weight (g) Underground part / Root length (cm): 25% PEG-6000 6 d, recovery 7 d; for Drought damage index reduced by / Fresh weight of the overground part improved by / Fresh weight of the underground part improved by / Root length of the wheat seedlings increased by: compared with the control group
Method: A 6-mesh sieve was used as a container to hydroponic wheat, 50 grains were sieved each time, a ½ Hoagland nutrient solution was replaced every other two days, a 2-amino-3-indolyl butyric acid solution was sprayed on the leaf surfaces when the wheat grew to a stage of two true leaves and one terminal bud, wherein the concentrations of 2-amino-3-indolyl butyric acid were 0 nm, 100 nm and 1,000 nm, and meanwhile, 0.02% of Tween-20 was added as a surfactant. After continuously spraying for two days, on the third day, the hydroponic nutrient solution was replaced with a ½ Hoagland nutrient solution containing 25% PEG-6000 to perform a stress treatment, a rehydration treatment was performed after the drought stress for 6 d, the wheat recovered to grow for 7 d in a normal nutrient solution, a drought damage index was observed and determined, and the root length and biomass were determined.
The performance characteristics of the leaves subjected to the drought damage were similar to those of the leaves subjected to a salt damage. The drought damage rate and the drought damage index were introduced by using the evaluation index of the salt damage, a drought damage index formula was as follows, and the drought damage grading standard was shown in table 16.

[2] = 10 nm, as printed with % in summary
[3] = treatment concentration 0.1 nm, 15 d after inoculation
[4] = treatment concentration 1 nm, 15 d after inoculation

Row | SMILES | Heat damage index (ryegrass; 1 nm) | Heat damage index (ryegrass; 10 nm) | Heat damage index (ryegrass; 100 nm) | Heat damage index (ryegrass; 1,000 nm) | Heat damage index of the ryegrass decreased (ryegrass; 1,000 nm) | Disease index [1, 2] | Disease indexes of the tobacco [1] | Relative immune effects [1] | Content of virus proteins ([1]; treatment concentration 0.1 nm) | Relative immune effect (%) ([1]; treatment concentration 0.1 nm) | Disease index [1, 3] | Content of virus proteins ([1]; treatment concentration 1 nm) | Relative immune effect (%) ([1]; treatment concentration 1 nm) | Disease index [1, 4] | Relative immune effect (%) ([1]; treatment concentration 10 nm) | Drought damage index (%) (hydroponic wheat; 100 nm) | Dry weight(g) Overground part (hydroponic wheat; 100 nm) | Dry weight(g) Underground part (hydroponic wheat; 100 nm) | Fresh weight (g) Overground part (hydroponic wheat; 100 nm) | Fresh weight (g) Underground part (hydroponic wheat; 100 nm) | further results
1 | CC(c1c[nH]c2ccccc12)C(N)C(=O)O (centres unmarked) | 61 | 57 | 43 | 25 | 65% | 30.42% | lower than 50 | ≥ 45% | 0.41 ± 0.005b | 46.68% | 49.70 ± 1.51b | 0.32 ± 0.014c | 56.11% | 40.91 ± 3.14c | 67.36% | 44% | 0.82 ± 0.01b g | 0.35 ± 0.01a g | 7.28 ± 0.05b g | 3.66 ± 0.01b g | Root length (cm) (hydroponic wheat; 100 nm): 13.97 ± 0.03a cm; Drought damage index (%) (hydroponic wheat; 1,000 nm): 24%; Dry weight(g) Overground part (hydroponic wheat; 1,000 nm): 0.90 ± 0.05a g; Dry weight(g) Underground part (hydroponic wheat; 1,000 nm): 0.38 ± 0.01a g; Fresh weight (g) Overground part (hydroponic wheat; 1,000 nm): 8.87 ± 0.09a g; Fresh weight (g) Underground part (hydroponic wheat; 1,000 nm): 4.51 ± 0.02a g; Root length (cm) (hydroponic wheat; 1,000 nm): 14.60 ± 0.01a cm; Drought damage index reduced by (hydroponic wheat; 1,000 nm): 44%; Fresh weight of the overground part improved by (hydroponic wheat; 1,000 nm): 44.93%; Fresh weight of the underground part improved by (hydroponic wheat; 1,000 nm): 54.98%; Root length of the wheat seedlings increased by (hydroponic wheat; 1,000 nm): 10.86%
2 | CC1CCNC1C(=O)O (centres unmarked) [3-methylpyrrolidine-2-carboxylic acid] | 57 | 50 | 38 | 20 | 68% | 21.44% | lower than 50 | ≥ 50% | 0.37 ± 0.003b | 50.84% | 41.31 ± 0.34b | 0.24 ± 0.001c | 68.43% | 27.89 ± 2.16c | 75.73% | 39% | 0.98 ± 0.07b g | 0.47 ± 0.05b g | 7.83 ± 0.10b g | 3.85 ± 0.05b g | Root length (cm) (hydroponic wheat; 100 nm): 14.50 ± 0.21b cm; Drought damage index (%) (hydroponic wheat; 1,000 nm): 20%; Dry weight(g) Overground part (hydroponic wheat; 1,000 nm): 1.11 ± 0.06a g; Dry weight(g) Underground part (hydroponic wheat; 1,000 nm): 0.55 ± 0.03a g; Fresh weight (g) Overground part (hydroponic wheat; 1,000 nm): 9.12 ± 0.13a g; Fresh weight (g) Underground part (hydroponic wheat; 1,000 nm): 4.67 ± 0.11a g; Root length (cm) (hydroponic wheat; 1,000 nm): 15.03 ± 0.31a cm; Drought damage index reduced by (hydroponic wheat; 1,000 nm): 61%; Fresh weight of the overground part improved by (hydroponic wheat; 1,000 nm): 44.08%; Fresh weight of the underground part improved by (hydroponic wheat; 1,000 nm): 36.55%; Root length of the wheat seedlings increased by (hydroponic wheat; 1,000 nm): 12.58%
